# Where a name gives a salt, the structure may show the parent alone. Read-outs that look alike come from different tables or passages of the source.
# How the values were obtained:
# in vivo = settings: mouse, in vivo, po
# Procedure: (§1) Groups of five Carworth CF1 S female mice, 16-20 g each, were fasted 16-22 hours before use. The mice were put in opaque plastic "shoe-box" cages 15-30 min. before injection, and then treated orally with 4, 12, 36, 108 and 324 mg/kg of the compound to be tested as a 13 mg/ml solution in 1% aqueous distilled water solution of methylcellulose (Methocel®). Each dose was given in a standard volume of 0.45 ml. Observations were made at 0.5, 2 and 24 hours after dosing. ED50 values were calculated for each parameter including death (LD50). The ED50 and LD50 values are the doses at which 50% of the naimals would be expected to respond.
# (§2) The mouse is placed on a stainless steel wire mesh screen (8 × 12 inches, 3 mesh per inch, 1/4 inch mesh openings) "shoe-box" lid (1 inch high) and is observed for normal activities, such as nose movements, head movements with apparent visual examination of the area, and/or walking around on the screen. Absence of or marked depression of these activities for 5 seconds constitutes loss of exploratory activity.
# (§3) The mouse is picked up by the tail and placed on the screen with its head facing the observer. Bilateral eyelid closure of 50% or more two seconds after placement is considered ptosis.
# (§4) The mouse is placed with its front paws on the edge of a stainless steel "shoe-box" cover, 1 inch high, covered with adhesive tape. Failure to remove both paws from the cover's edge within 5 seconds constitutes catatonia.
# (§5) The observer gently strokes the abdominal musculature of the mouse with thumb and forefinger. Flaccidity (or rarely, tenseness) is recorded.
# (§6) The mouse is gently swung by the tail toward a horizontal 12 gauge wire tautly stretched 25 cm above the bench. After the mouse grasps the wire with its forepaws, its posterior end is held directly below the wire. A normal mouse grasps the wire with its forepaws and immediately lifts its hind limbs to the wire. Failure to grasp the wire with the forepaws in both trials constitutes loss of the grip reflex; failure to lift the hind limbs to grasp the wire with at least one hind paw within 5 seconds constitutes loss of the lift reflex.
# (§7) The mouse is placed on the bar 10-20 cm horizontally and 9 cm vertically from a Galton whistle adjusted for 13 kc (5 mm on the whistle scale) and is subjected to several short bursts of sound.
# (§8) An effective tranquilizer should induce little or no tremor response. […] Tremors include fine or coarse and intermittent or continuous tremors.
# female white mice = experiment: animal or person; settings: oral; for ED50: Mus musculus, po; for ED50 / Catatonia ED50 / Exploratory Loss Visual ED50 / Muscle Tone ED50 / Ptosis ED50 / Reflexes Grip ED50 / Reflexes Lift ED50 / Reflexes Pinna ED50 / Tremors ED50: mice; for LD50 / Catatonia ED50 / Exploratory Loss Visual ED50 / Muscle Tone ED50 / Ptosis ED50 / Reflexes Grip ED50 / Reflexes Lift ED50 / Reflexes Pinna ED50 / Tremors ED50: Table 1; for LD50: 24-hour value
# Procedure: as §1, §2, §3, §4, §5, §6, §7, §8
# [1] = tested on: phenylquinone-induced writhing; experiment: Phenylquinone writhing test (analgesia); format: in vivo, mouse (Carworth CF1 S female); settings: Table 1; oral, mice
# Text: This mouse test is predictive of analgesic response in humans. [E. Siegmund, R. Cadmus and G. Lee, Proc. Soc.
# ED50 values were obtained graphically from the data.
# [2] = read-out: Catatonia ED50, Table III
# [3] = read-out: Exploratory Loss Visual ED50, Table III
# [4] = read-out: Muscle Tone ED50, Table III
# [5] = read-out: Ptosis ED50, Table III
# [6] = read-out: Reflexes Grip ED50, Table III
# [7] = read-out: Reflexes Lift ED50, Table III
# [8] = read-out: Reflexes Pinna ED50, Table III
Molecule,LD50 at 24 h (in vivo),ED50 (female white mice; [2]),ED50 (female white mice; [3]),ED50 (female white mice; [4]),ED50 (female white mice; [5]),ED50 (female white mice; [6]),ED50 (female white mice; [7]),ED50 (female white mice; [8]),further results
"O=[N+]([O-])c1ccc2c(c1)[C@]13C[C@H]2c2ccccc2[C@H]1CN(CC1CCCC1)C3 (relative stereo) [Example 63, 5-Nitro-2-cyclopentylmethyl-2,3,8,12b-tetrahydro-1H-3a,8-methanodibenzo[3,4:6,7]cyclohepta[1,2-c]pyrrole Hydrochloride]",> 324 mg/kg,200 mg/kg,12 mg/kg,36 mg/kg,7 mg/kg,> 324 mg/kg,100 mg/kg,20 mg/kg,–
"Cc1ccc2c(c1)[C@]13C[C@H]2c2ccccc2[C@H]1CN(CC1CCCC1)C3 (relative stereo) [Example 89, 5-Methyl-2-cyclopentylmethyl-2,3,8,12b-tetrahydro-1H-3a,8-methanodibenzo[3,4:6,7]cyclohepta[1,2-c]pyrrole]",> 81 mg/kg,50 mg/kg,9 mg/kg,50 mg/kg,15 mg/kg,< 81 mg/kg,25 mg/kg,15 mg/kg,–
C[N+]1([O-])C[C@@H]2c3ccccc3[C@@H]3C[C@@]2(C1)c1ccccc13 (relative stereo) [Methyl-N-oxide],> 324 mg/kg,–,–,–,–,–,–,–,"ED50 (in vivo): 36 mg/kg; ED50 (female white mice; read-out: Catatonia ED50, Table 1): 60 mg/kg; ED50 (female white mice; read-out: Exploratory Loss Visual ED50, Table 1): 60 mg/kg; ED50 (female white mice; read-out: Muscle Tone ED50, Table 1): 100 mg/kg; ED50 (female white mice; read-out: Ptosis ED50, Table 1): 36 mg/kg; ED50 (female white mice; read-out: Reflexes Grip ED50, Table 1): 200 mg/kg; ED50 (female white mice; read-out: Reflexes Lift ED50, Table 1): 36 mg/kg; ED50 (female white mice; read-out: Reflexes Pinna ED50, Table 1): 60 mg/kg"
"c1ccc2c(c1)C1CC3(CN(CC4CCCC4)CC23)c2ccccc21 (single isomer, unassigned; (+)) [(+)-Cyclopentylmetnyl, 2-Cyclopentylmethyl-2,3,8,12b-tetrahydro-trans-1H,-3a,8-methanodibenzo[3,4:6,7]cyclohepta[1,2-c]pyrrole]",–,–,–,–,–,–,–,–,Phenylquinone Analgesia ED50 [1]: 24 mg/kg; LD50 (female white mice): > 324 mg/kg; Catatonia ED50 (female white mice): 36 mg/kg; Exploratory Loss Visual ED50 (female white mice): 36 mg/kg; Muscle Tone ED50 (female white mice): 60 mg/kg; Ptosis ED50 (female white mice): 20 mg/kg; Reflexes Grip ED50 (female white mice): 200 mg/kg; Reflexes Lift ED50 (female white mice): 60 mg/kg; Reflexes Pinna ED50 (female white mice): 20 mg/kg; Tremors ED50 (female white mice): > 324 mg/kg
"CN1CC2c3cc(Cl)ccc3C3CC2(C1)c1ccccc13.Cl (stereo not shown) [Example 80, 11-Chloro-2-methyl-2,3,8,12b-tetrahydro-1H-3a,8-methanodibenzo[3,4:6,7]cyclohepta[1,2-c]pyrrole Hydrochloride]",200 mg/kg,100 mg/kg,7 mg/kg,20 mg/kg,20 mg/kg,60 mg/kg,20 mg/kg,20 mg/kg,–
"Cl.Clc1ccc2c(c1)C1CN(CC3CCCCC3)CC13CC2c1ccccc13 (stereo not shown) [Example 81, 11-Chloro-2-cyclohexylmethyl-2,3,8,12b-tetrahydro-1H-3a,8-methanodibenzo[3,4:6,7]cyclohepta[1,2-c]-pyrrole Hydrochloride]",> 324 mg/kg,19 mg/kg,17 mg/kg,12 mg/kg,< 3 mg/kg,> 324 mg/kg,36 mg/kg,11 mg/kg,–
"Nitro-2-methyl-2,3,8,12b-tetrahydro-1H-3a,8-methanodibenzo[3,4:6,7]cyclohepta[1,2-c]pyrrole Hydrochloride [Example 57]",–,–,–,–,–,–,–,–,Phenylquinone Analgesia ED50 [1]: 5 mg/kg; LD50 (female white mice): 200 mg/kg; Catatonia ED50 (female white mice): > 324 mg/kg; Exploratory Loss Visual ED50 (female white mice): 20 mg/kg; Muscle Tone ED50 (female white mice): 60 mg/kg; Ptosis ED50 (female white mice): 12 mg/kg; Reflexes Grip ED50 (female white mice): > 324 mg/kg; Reflexes Lift ED50 (female white mice): > 324 mg/kg; Reflexes Pinna ED50 (female white mice): 12 mg/kg; Tremors ED50 (female white mice): 100 mg/kg
